A word on the IC50: it is the point on the concentration scale where inhibition reaches its midpoint.

Consider 29 compounds from US20240199546A1, “INHIBITORS OF SOLUTE CARRIER FAMILY 6A MEMBER 19 (SLC6A19) AND METHODS OF USE THEREOF” (Maze Therapeutics, Inc., priority 2022, published 2024).

A value given as a limit tells only on which side of the number the result lay.

One experiment addresses T1, human SLC6A19 and TMEM27 (Homo sapiens, UniProt Q695T7).
T1 construct: expressed in transfected cells
T1 sequence (Q695T7 1-634): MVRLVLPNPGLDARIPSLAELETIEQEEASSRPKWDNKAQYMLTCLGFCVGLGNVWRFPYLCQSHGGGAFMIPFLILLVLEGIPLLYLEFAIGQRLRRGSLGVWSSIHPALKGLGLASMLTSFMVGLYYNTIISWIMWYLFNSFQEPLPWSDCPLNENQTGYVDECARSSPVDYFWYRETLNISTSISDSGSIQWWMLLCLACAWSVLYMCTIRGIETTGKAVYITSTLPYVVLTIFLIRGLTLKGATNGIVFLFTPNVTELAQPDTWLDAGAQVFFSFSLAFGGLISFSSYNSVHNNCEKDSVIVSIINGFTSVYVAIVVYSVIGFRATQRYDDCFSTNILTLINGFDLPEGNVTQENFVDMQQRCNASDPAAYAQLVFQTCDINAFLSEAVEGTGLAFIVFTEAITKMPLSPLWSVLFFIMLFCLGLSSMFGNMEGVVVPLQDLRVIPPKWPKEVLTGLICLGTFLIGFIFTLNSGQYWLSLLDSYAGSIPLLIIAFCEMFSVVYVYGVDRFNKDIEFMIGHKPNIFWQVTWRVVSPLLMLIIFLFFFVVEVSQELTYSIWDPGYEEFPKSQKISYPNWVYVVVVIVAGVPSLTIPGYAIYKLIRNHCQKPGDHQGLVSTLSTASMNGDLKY
T1 sequence (Q9HBJ8 15-222 partner): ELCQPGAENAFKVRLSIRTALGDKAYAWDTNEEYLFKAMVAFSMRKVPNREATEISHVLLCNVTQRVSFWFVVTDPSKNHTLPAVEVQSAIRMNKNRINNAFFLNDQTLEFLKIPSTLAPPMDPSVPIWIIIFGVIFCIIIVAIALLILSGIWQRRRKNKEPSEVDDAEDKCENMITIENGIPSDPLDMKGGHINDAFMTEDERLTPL
The experiment in a line: Radiolabelled (3H) leucine uptake in CHO cells with doxycycline-inducible expression of human SLC6A19 and TMEM27 (Example B-1). Type of experiment: cell-based. The note with it: CHO cells with doxycycline-inducible expression of human SLC6A19 and TMEM27, read-out: SLC6A19_Radioligand Uptake Assay IC50. The gist of the method:
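CHO cells were induced with doxycycline for 18 h at 37 °C, washed in HBSS, then exposed to compounds for 1 h: 8-point, 3-fold dilutions in duplicate, 0.5% DMSO final. Uptake measured by scintillation counting after 2 h shaking. Activity normalized with positive control as 0% and DMSO as 100%.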
Regarding `CO[C@H](C)C(=O)NCc1cc2cc(Cl)c(OCc3cc(C)no3)cc2[nH]1` [Compound 314, (R)-N-((5-chloro-6-((3-methylisoxazol-5-yl)methoxy)-1H-indol-2-yl)methyl)-2-methoxypropanamide], the IC50 is 0.375 µM.

In the case of `O=C(NCc1cc2cc(Cl)c(OCc3cscn3)cc2[nH]1)N1CCC1CO` (racemic) [Compound 365, (S)-N-((5-chloro-6-(thiazol-4-ylmethoxy)-1H-indol-2-yl)methyl)-2-(hydroxymethyl)azetidine-1-carboxamide and (R)-N-((5-chloro-6-(thiazol-4-ylmethoxy)-1H-indol-2-yl)methyl)-2-(hydroxymethyl)azetidine-1-carboxamide], the IC50 is 0.991 µM.

For the compound `O=C(NCc1cc2cc(Cl)c(OCc3ccon3)cc2[nH]1)N1CCOCC1` [Compound 84, N-((5-chloro-6-(isoxazol-3-ylmethoxy)-1H-indol-2-yl)methyl)morpholine-4-carboxamide], the IC50 amounted to 0.69 µM.

Consider `CC1(C(=O)NCc2cc3cc(CCC#N)c(OCc4ccon4)cc3[nH]2)CC1` [Compound 642, N-((5-(2-cyanoethyl)-6-(isoxazol-3-ylmethoxy)-1H-indol-2-yl)methyl)-1-methylcyclopropane-1-carboxamide], for which the half-maximal inhibitory concentration (IC50) came out at 2.74 µM.

As to `Cc1cc(COc2cc3[nH]c(CNC(=O)[C@@H]4CCCN4C)cc3cc2Cl)on1` [Compound 577, (S)-N-((5-chloro-6-((3-methylisoxazol-5-yl)methoxy)-1H-indol-2-yl)methyl)-1-methylpyrrolidine-2-carboxamide], the half-inhibitory concentration (IC50) was determined as 1.44 µM.

As to `O=C(NCc1cc2cc(Cl)c(OCc3ccon3)cc2[nH]1)C1CCC1` [Compound 488, N-((5-chloro-6-(isoxazol-3-ylmethoxy)-1H-indol-2-yl)methyl)cyclobutanecarboxamide], the IC50 turned out to be 0.161 µM.

Take `Cc1cc(COc2cc3[nH]c(CNC(=O)[C@H]4C[C@@H]4F)cc3cc2Cl)on1` [Compound 538, (1R,2S)-N-((5-chloro-6-((3-methylisoxazol-5-yl)methoxy)-1H-indol-2-yl)methyl)-2-fluorocyclopropane-1-carboxamide]: the IC50 came out at 0.0594 µM.

On to `CC1(C(=O)NCc2cc3cc(Cl)c(SCc4ccon4)cc3[nH]2)CC1` [Compound 197, N-((5-chloro-6-((isoxazol-3-ylmethyl)thio)-1H-indol-2-yl)methyl)-1-methylcyclo propanecarboxamide], for which the IC50 turned out to be 0.154 µM.

As for `CC1(C(=O)NCc2cc3cc(Cl)c(OCc4cccc(C(F)(F)F)n4)cc3[nH]2)CC1` [Compound 101, N-((5-chloro-6-((6-(trifluoromethyl)pyridin-2-yl)methoxy)-1H-indol-2-yl)methyl)-1-methylcyclopropane-1-carboxamide], the IC50 came to 4.36 µM.

For the compound `Cc1cc(COc2cc3[nH]c(CNC(=O)[C@@H]4CCCO4)cc3cc2Cl)on1` [Compound 312, (S)-N-((5-chloro-6-((3-methylisoxazol-5-yl)methoxy)-1H-indol-2-yl)methyl)tetrahydrofuran-2-carboxamide], the IC50 was 0.317 µM.

As for `CC(F)C(=O)NCc1cc2cc(Cl)c(OCc3cscn3)cc2[nH]1` (racemic) [Compound 511, (R)-N-((5-chloro-6-(thiazol-4-ylmethoxy)-1H-indol-2-yl)methyl)-2-fluoropropanamide and (S)-N-((5-chloro-6-(thiazol-4-ylmethoxy)-1H-indol-2-yl)methyl)-2-fluoropropanamide], the IC50 came to 0.0861 µM.

Turning to `CC(=O)NCc1cc2cc(Cl)c(OCC3COC3)cc2[nH]1` [Compound 355, N-((5-chloro-6-(oxetan-3-ylmethoxy)-1H-indol-2-yl)methyl)acetamide], the IC50 is 6.6 µM.

On to `Cc1cc(COc2cc3[nH]c(CNC(=O)[C@H]4C[C@@H](O)C4)cc3cc2Cl)on1` [Compound 253, (1S,3S)-N-((5-chloro-6-((3-methylisoxazol-5-yl)methoxy)-1H-indol-2-yl)methyl)-3-hydroxycyclobutane-1-carboxamide], for which the half-maximal inhibitory concentration (IC50) was determined as 0.606 µM.

As for `CO[C@@H](C)C(=O)NCc1cc2cc(Cl)c(OCc3cscn3)cc2[nH]1` [Compound 291, (S)-N-((5-chloro-6-(thiazol-4-ylmethoxy)-1H-indol-2-yl)methyl)-2-methoxypropanamide], the IC50 is 0.197 µM.

On to `Cc1cc(COc2cc3[nH]c(CNC(=O)C(C)(C)O)cc3cc2Cl)on1` [Compound 249, N-((5-chloro-6-((3-methylisoxazol-5-yl)methoxy)-1H-indol-2-yl)methyl)-2-hydroxy-2-methylpropanamide], for which the IC50 was 0.545 µM.

On to `O=C(NCc1cc2cc(Cl)c(OCc3cscn3)cc2[nH]1)[C@H]1CCOC1` [Compound 308, (S)-N-((5-chloro-6-(thiazol-4-ylmethoxy)-1H-indol-2-yl)methyl)tetrahydrofuran-3-carboxamide], for which the IC50 worked out at 0.168 µM.

Consider `O=C(NCc1cc2cc(Cl)c(OCc3ccon3)cc2[nH]1)C1CCCC1` [Compound 492, N-((5-chloro-6-(isoxazol-3-ylmethoxy)-1H-indol-2-yl)methyl)cyclopentanecarboxamide], for which the IC50 came to 0.359 µM.

As to `Cc1cc(COc2cc3[nH]c(CNC(=O)C(C)(F)F)cc3cc2F)on1` [Compound 441, 2,2-difluoro-N-((5-fluoro-6-((3-methylisoxazol-5-yl)methoxy)-1H-indol-2-yl)methyl)propanamide], the IC50 turned out to be 0.0956 µM.

With `O=C(CC(F)F)NCc1cc2cc(F)c(OCc3cscn3)cc2[nH]1` [Compound 516, 3,3-difluoro-N-((5-fluoro-6-(thiazol-4-ylmethoxy)-1H-indol-2-yl)methyl)propanamide], the 50% inhibitory concentration (IC50) was 0.0889 µM.

As to `[2H]C([2H])([2H])c1cc(COc2cc3[nH]c(CNC(=O)C4(C)CC4)cc3cc2F)no1` [Compound 664, N-((5-fluoro-6-((5-(methyl-d3)isoxazol-3-yl)methoxy)-1H-indol-2-yl)methyl)-1-methylcyclopropane-1-carboxamide], the IC50 was 0.187 µM.

For the compound `COc1cc2cc(CNC(=O)C3(C)CC3)[nH]c2cc1CCn1nccn1` [Compound 591, N-((6-(2-(2H-1,2,3-triazol-2-yl)ethyl)-5-methoxy-1H-indol-2-yl)methyl)-1-methylcyclopropane-1-carboxamide], the IC50 stood at 0.184 µM.

Turning to `CC1(C(=O)NCc2cc3cc(Cl)c(OCc4cc5ccccc5[nH]4)cc3[nH]2)CC1` [Compound 607, N-((6-((1H-indol-2-yl)methoxy)-5-chloro-1H-indol-2-yl)methyl)-1-methylcyclopropane-1-carboxamide], the IC50 is greater than 6.44 µM.

`Cc1cc(COc2cc3[nH]c(CNC(=O)C[C@@H]4CCOC4)cc3cc2Cl)on1` [Compound 289, (S)-N-((5-chloro-6-((3-methylisoxazol-5-yl)methoxy)-1H-indol-2-yl)methyl)-2-(tetrahydrofuran-3-yl)acetamide]: the IC50 is 2.02 µM.

Consider `CC1(C(=O)NCc2cc3cc(Cl)c(OCc4cc(F)ccn4)cc3[nH]2)CC1` [Compound 35, N-((5-chloro-6-((4-fluoropyridin-2-yl)methoxy)-1H-indol-2-yl)methyl)-1-methylcyclopropane-1-carboxamide], for which the IC50 amounted to 0.902 µM.

For `O=C(NCc1cc2ccc(OCc3ccon3)cc2[nH]1)N1CCOCC1` [Compound 199, N-((6-(isoxazol-3-ylmethoxy)-1H-indol-2-yl)methyl)morpholine-4-carboxamide], the IC50 was determined as 1.37 µM.

For `CC1(C(=O)NCc2cc3cc(OC(F)(F)F)c(CCc4ccon4)cc3[nH]2)CC1` [Compound 510, N-((6-(2-(isoxazol-3-yl)ethyl)-5-(trifluoromethoxy)-1H-indol-2-yl)methyl)-1-methylcyclopropane-1-carboxamide], the IC50 was 0.385 µM.

Consider `CC(C)c1cc(COc2cc3[nH]c(CNC(=O)C4(C)CC4)cc3cc2Cl)no1` [Compound 102, N-((5-chloro-6-((5-isopropylisoxazol-3-yl)methoxy)-1H-indol-2-yl)methyl)-1-methylcyclopropane-1-carboxamide], for which the IC50 stood at 17.6 µM.

Regarding `CC1(C(=O)NCc2cc3ccc(OCc4cc(C(F)(F)F)on4)cc3[nH]2)CC1` [Compound 354, 1-methyl-N-((6-((5-(trifluoromethyl)isoxazol-3-yl)methoxy)-1H-indol-2-yl)methyl)cyclopropane-1-carboxamide], the IC50 is greater than 5.28 µM.

The same experiment, now with this note: SLC6A19_Radioligand Uptake Assay IC50, CHO cells with doxycycline-inducible expression of human SLC6A19 and TMEM27.
`Cc1cc(COc2cc3[nH]c(CNC(N)=O)cc3cc2Cl)on1` [Compound 637, 1-((5-chloro-6-((3-methylisoxazol-5-yl)methoxy)-1H-indol-2-yl)methyl)urea] yielded an IC50 of 0.376 µM.
